# Measurements as given in the supplement of paper PMC10307832.
# How the values were obtained:
# Experiment in all cases: relative viability (nuclei count vs DMSO), 5 days (fraction); higher = more cells survive
# [1] = compound: CCC1=CN=CN=C1N2CCN(CC2)CC3=NC4=C(N3)C=C(C=C4)C(F)(F)F + CC1(C)CCC(c2ccc(Cl)cc2)=C(CN2CCN(c3ccc(C(=O)NS(=O)(=O)c4ccc(N[C@H](CCN5CCOCC5)CSc5ccccc5)c(S(=O)(=O)C(F)(F)F)c4)cc3)CC2)C1 [Navitoclax] (partner 0.5 µM)
# Outline: (§1)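 After 5 days of treatment, lung cancer cells in 1536-well plates were fixed and stained in a single step (final 0.05% Triton X-100, 1% formaldehyde, 1 ug/ml Hoechst) and their nuclei counted on 4× images. Treatment had been applied by pin tool the day after seeding as one drug alone or as a fixed anchor-drug dose with five library-drug doses (not always all listed) in √10 steps. Relative viability is the nuclei count of treated wells divided by that of vehicle wells, and values are medians of duplicate plates.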
# [2] = compound: CCn1c(-c2nonc2N)nc2cnc(Oc3cccc(NC(=O)c4ccc(OCCN5CCOCC5)cc4)c3)cc21 + CCNC(=O)c1noc(-c2cc(C(C)C)c(O)cc2O)c1-c1ccc(CN2CCOCC2)cc1 [Luminespib] (partner 0.01 µM)
# Outline: as §1
# [3] = compound: CCn1c(-c2nonc2N)nc2cnc(Oc3cccc(NC(=O)c4ccc(OCCN5CCOCC5)cc4)c3)cc21 + CS(=O)(=O)N1CCN(Cc2cc3nc(-c4cccc5[nH]ncc45)nc(N4CCOCC4)c3s2)CC1 [Pictilisib] (partner 1 µM)
# Outline: as §1
Cell Line,relative viability ([1]; first compound 0.04 µM),relative viability ([1]; first compound 0.1265 µM),relative viability ([1]; first compound 0.4 µM),relative viability ([1]; first compound 1.265 µM),relative viability ([1]; first compound 4 µM),relative viability ([2]; first compound 0.04 µM),relative viability ([2]; first compound 0.1265 µM),relative viability ([2]; first compound 0.4 µM),relative viability ([2]; first compound 1.265 µM),relative viability ([2]; first compound 4 µM),relative viability ([3]; first compound 0.04 µM),relative viability ([3]; first compound 0.1265 µM),relative viability ([3]; first compound 0.4 µM),relative viability ([3]; first compound 1.265 µM),relative viability ([3]; first compound 4 µM)
201T,1.23,1.19,1.16,1.17,1.23,1.1,1.02,1.05,1.06,1.07,0.732,0.67,0.586,0.631,0.743
A549,1.14,1.13,1.12,1.16,0.945,–,–,–,–,–,0.801,0.408,0.436,0.139,0.0926
A-427,0.873,0.9,0.915,0.872,0.826,1.14,0.974,0.627,0.416,0.524,0.879,0.674,0.666,0.526,0.402
ABC-1,–,–,–,–,–,0.633,0.617,0.367,0.254,0.248,1.34,0.599,0.494,0.442,0.401
BEN,0.0475,0.075,0.0493,0.0611,0.0644,0.496,0.235,0.158,0.163,0.249,0.574,0.501,0.43,0.285,0.318
CAL-12T,1.26,1.28,1.21,1.23,1.17,0.687,0.444,0.287,0.379,0.286,0.486,0.549,0.525,–,0.408
COR-L23,1.02,0.853,1.02,0.959,0.968,0.62,0.463,0.447,0.15,0.106,1.02,0.68,0.238,0.197,0.192
COR-L 105,0.714,0.717,0.695,0.868,0.651,0.657,0.282,0.592,0.445,0.247,0.361,0.368,0.277,0.17,0.249
Calu-6,0.818,0.779,0.721,0.713,0.717,–,–,–,–,–,1.06,0.808,0.797,0.54,0.403
ChaGo-K-1,–,1,0.927,0.936,0.942,0.586,0.691,0.706,0.48,0.454,1.13,0.652,0.507,–,0.425
EBC-1,0.422,0.49,0.396,0.415,0.434,–,–,–,–,–,0.355,0.319,0.35,0.31,0.332
EKVX,0.96,0.96,0.886,0.724,0.977,1.03,0.807,0.898,0.765,0.645,0.46,0.505,0.491,0.406,0.481
EMC-BAC-2,1.15,1.14,1.14,1.14,1.2,1.13,1.16,1.1,0.863,0.662,0.655,0.517,0.395,0.382,0.339
EPLC-272H,0.973,1.05,1.11,1.07,1.31,0.263,0.697,0.265,0.26,0.286,0.406,0.341,0.181,0.258,0.281
H3255,0.489,0.469,0.507,0.49,0.529,1.02,0.819,0.735,0.571,0.599,0.63,0.593,0.517,0.473,0.52
HARA,1.18,1.13,1.15,1.11,1.19,0.839,1.18,0.682,0.801,0.678,0.345,0.345,0.157,0.148,0.0855
HCC-15,0.702,0.67,0.757,0.694,0.71,0.301,0.227,0.376,0.207,0.249,0.955,0.718,0.701,0.664,0.744
HCC-44,1.01,1.06,0.895,0.823,0.919,0.772,0.974,0.478,0.17,0.126,0.557,0.529,0.276,0.236,0.244
HCC-78,0.654,0.832,0.831,0.476,0.525,–,–,–,–,–,0.3,0.311,0.208,0.262,0.367
HCC-366,1.07,1.04,1,–,1.05,–,–,–,–,–,0.124,0.151,0.0942,0.0463,0.0657
HCC-827,1.08,1.03,1.03,0.903,0.937,1.09,0.592,0.792,0.591,0.588,1.08,1.06,1.09,0.824,0.933
HOP-62,1.06,1.07,1.04,0.898,0.927,1.11,1.01,0.936,0.764,0.735,0.88,0.757,0.599,0.535,0.433
IA-LM,0.733,0.806,0.646,0.654,0.695,–,–,–,–,–,0.751,0.538,0.634,0.733,0.674
LC-2-ad,0.459,0.603,0.522,0.324,0.351,0.937,0.801,0.715,0.568,0.752,0.683,0.729,0.372,0.451,0.386
